According to US8614327B2 (Vertex Pharmaceuticals Incorporated, priority 2004, dated 2013):

Biological target: T1, ΔF508-CFTR (Homo sapiens, UniProt P13569, DEL508-508)
T1 construct: expressed in transfected cells
Assay: Membrane potential optical (FRET/VIPR) assay, identification of potentiator compounds
Format: cell-based
Settings: Table 3, assay not given; for % Activity: relative efficacy
Outline: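 NIH3T3 mouse fibroblasts stably expressing ΔF508-CFTR, temperature-corrected 24 h at 27° C., read on VIPR by FRET between CC2-DMPE and DiSBAC2(3). Potentiators identified in a double-addition format, first adding chloride-free (gluconate) medium with or without compound.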

T1 sequence (P13569 with tags, fused parts or gaps DEL508-508): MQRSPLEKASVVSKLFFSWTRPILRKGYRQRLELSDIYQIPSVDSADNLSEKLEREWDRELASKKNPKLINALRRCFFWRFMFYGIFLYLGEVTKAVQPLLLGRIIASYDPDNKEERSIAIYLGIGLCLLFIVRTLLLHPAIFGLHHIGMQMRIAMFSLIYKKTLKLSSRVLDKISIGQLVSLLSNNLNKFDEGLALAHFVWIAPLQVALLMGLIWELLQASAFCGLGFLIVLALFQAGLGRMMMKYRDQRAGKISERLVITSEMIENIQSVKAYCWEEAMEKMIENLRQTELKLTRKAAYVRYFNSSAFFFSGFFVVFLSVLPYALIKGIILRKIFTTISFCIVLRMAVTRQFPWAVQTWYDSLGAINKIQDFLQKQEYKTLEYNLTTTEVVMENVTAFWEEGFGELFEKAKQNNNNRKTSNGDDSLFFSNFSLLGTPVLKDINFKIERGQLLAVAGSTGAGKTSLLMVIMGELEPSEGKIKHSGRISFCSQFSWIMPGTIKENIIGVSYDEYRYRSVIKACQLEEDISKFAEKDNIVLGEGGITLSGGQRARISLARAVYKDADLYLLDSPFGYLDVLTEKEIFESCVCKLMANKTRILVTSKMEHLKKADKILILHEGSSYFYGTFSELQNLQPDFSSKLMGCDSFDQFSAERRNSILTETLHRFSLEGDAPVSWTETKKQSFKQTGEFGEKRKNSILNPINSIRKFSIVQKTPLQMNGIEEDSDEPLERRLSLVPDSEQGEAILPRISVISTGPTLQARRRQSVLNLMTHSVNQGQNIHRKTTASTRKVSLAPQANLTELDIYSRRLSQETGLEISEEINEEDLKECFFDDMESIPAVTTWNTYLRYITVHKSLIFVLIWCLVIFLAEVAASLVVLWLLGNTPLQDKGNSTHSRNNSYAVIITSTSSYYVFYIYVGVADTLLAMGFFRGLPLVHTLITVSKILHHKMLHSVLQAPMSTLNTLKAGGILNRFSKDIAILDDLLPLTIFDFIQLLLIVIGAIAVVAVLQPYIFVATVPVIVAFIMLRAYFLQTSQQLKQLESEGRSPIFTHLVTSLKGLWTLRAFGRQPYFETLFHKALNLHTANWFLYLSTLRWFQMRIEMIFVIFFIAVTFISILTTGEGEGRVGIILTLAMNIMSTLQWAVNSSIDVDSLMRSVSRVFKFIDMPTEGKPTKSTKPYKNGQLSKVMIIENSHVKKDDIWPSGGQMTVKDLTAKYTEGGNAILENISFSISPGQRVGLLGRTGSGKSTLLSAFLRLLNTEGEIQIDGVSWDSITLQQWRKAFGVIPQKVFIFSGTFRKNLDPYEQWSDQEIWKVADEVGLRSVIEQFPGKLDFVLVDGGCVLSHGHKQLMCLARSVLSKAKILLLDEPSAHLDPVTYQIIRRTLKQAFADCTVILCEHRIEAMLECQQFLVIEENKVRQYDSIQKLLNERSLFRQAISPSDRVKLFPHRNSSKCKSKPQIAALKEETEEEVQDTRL

| EC50 | % Activity | SMILES |
| --- | --- | --- |
| < 10 µM | ++ (between 25% to 100%) | CC(C)(C)c1ccc(NC(=O)c2c[nH]c3cccc(O)c3c2=O)cc1O [Compound 633, 5-hydroxy-N-(3-hydroxy-4-tert-butyl-phenyl)-4-oxo-1H-quinoline-3-carboxamide] |
| < 10 µM | ++ (between 25% to 100%) | CCOc1ccc2[nH]cc(C(=O)Nc3cc4[nH]ccc4cc3C(C)(C)C)c(=O)c2c1 [Compound 681, 6-ethoxy-4-oxo-N-(5-tert-butyl-1H-indol-6-yl)-1H-quinoline-3-carboxamide] |
| < 10 µM | ++ (between 25% to 100%) | CC(C)(C)c1cccc(NC(=O)c2c[nH]c3ccc(F)cc3c2=O)c1 [Compound 664, 6-fluoro-4-oxo-N-(3-tert-butylphenyl)-1H-quinoline-3-carboxamide] |
| < 10 µM | ++ (between 25% to 100%) | Cc1ccc2[nH]cc(C(=O)Nc3cc(O)c(C(C)(C)C)cc3C(C)(C)C)c(=O)c2c1 [Compound 688, N-(5-hydroxy-2,4-ditert-butyl-phenyl)-6-methyl-4-oxo-1H-quinoline-3-carboxamide] |
| < 10 µM | ++ (between 25% to 100%) | O=C(Nc1ccc(C2CCCCC2)c(O)c1)c1c[nH]c2ccccc2c1=O [Compound 564, N-(4-cyclohexyl-3-hydroxy-phenyl)-4-oxo-1H-quinoline-3-carboxamide] |
| < 10 µM | + (<25%) | CC(CO)(CO)c1ccc(NC(=O)c2c[nH]c3ccccc3c2=O)cc1 [Compound 590, N-[4-[2-hydroxy-1-(hydroxymethyl)-1-methyl-ethyl]phenyl]-4-oxo-1H-quinoline-3-carboxamide] |
| < 10 µM | ++ (between 25% to 100%) | Cc1cc(C(C)(C)C)c(O)cc1NC(=O)c1c[nH]c2ccc(F)cc2c1=O [Compound 683, 6-fluoro-N-(5-hydroxy-2-methyl-4-tert-butyl-phenyl)-4-oxo-1H-quinoline-3-carboxamide] |
|  | ++ (between 25% to 100%) | CC(C)c1ccc(NC(=O)c2c[nH]c3ccc(F)cc3c2=O)cc1O [Compound 597, 6-fluoro-N-(3-hydroxy-4-isopropyl-phenyl)-4-oxo-1H-quinoline-3-carboxamide] |
| < 10 µM | ++ (between 25% to 100%) | O=C(Nc1ccc(C(F)(F)F)cc1Cl)c1c[nH]c2cccc(O)c2c1=O [Compound 635, N-[2-chloro-4-(trifluoromethyl)phenyl]-5-hydroxy-4-oxo-1H-quinoline-3-carboxamide] |
| < 10 µM | + (<25%) | CC1(c2ccc(NC(=O)c3c[nH]c4cccc(O)c4c3=O)cc2O)CCCCC1 [Compound 606, 5-hydroxy-N-[3-hydroxy-4-(1-methylcyclohexyl)-phenyl]-4-oxo-1H-quinoline-3-carboxamide] |
| < 10 µM | ++ (between 25% to 100%) | CN1CCC(C)(C)c2ccc(NC(=O)c3c[nH]c4ccccc4c3=O)cc21 [Compound 710, 4-oxo-N-(1,4,4-trimethyl-2,3-dihydroquinolin-7-yl)-1H-quinoline-3-carboxamide] |
| < 10 µM | ++ (between 25% to 100%) | O=C(Nc1cc2[nH]ccc2cc1F)c1c[nH]c2cccc(O)c2c1=O [Compound 596, N-(5-fluoro-1H-indol-6-yl)-5-hydroxy-4-oxo-1H-quinoline-3-carboxamide] |
| < 10 µM | +++ (>100%) | CNc1cccc2[nH]cc(C(=O)Nc3cc(O)c(C(C)(C)C)cc3C(C)(C)C)c(=O)c12 [Compound 542, N-(5-hydroxy-2,4-ditert-butyl-phenyl)-5-methylamino-4-oxo-1H-quinoline-3-carboxamide] |

Continued, compound first:

| SMILES | EC50 | % Activity |
| --- | --- | --- |
| COC(=O)Oc1c(NC(=O)c2c[nH]c3ccccc3c2=O)cc(F)cc1C(C)(C)C [Compound 288, N-(5-fluoro-2-methoxycarbonyloxy-3-tert-butyl-phenyl)-4-oxo-1H-quinoline-3-carboxamide] | < 10 µM | ++ (between 25% to 100%) |
| CC(C)(C)OC(=O)N1CCCc2ccc(NC(=O)c3c[nH]c4ccccc4c3=O)cc21 [Compound 183, 7-[(4-oxo-1H-quinolin-3-yl)carbonylamino]-1,2,3,4-tetrahydroquinoline-1-carboxylic acid tert-butyl ester] | < 10 µM | ++ (between 25% to 100%) |
| O=C(Nc1ccc(C2CCCCC2)c(O)c1)c1c[nH]c2cccc(O)c2c1=O [Compound 522, N-(4-cyclohexyl-3-hydroxy-phenyl)-5-hydroxy-4-oxo-1H-quinoline-3-carboxamide] | < 10 µM | ++ (between 25% to 100%) |
| CC(C)(C)c1ccc(NC(=O)c2c[nH]c3ccccc3c2=O)cc1CO [Compound 6, N-[3-(hydroxymethyl)-4-tert-butyl-phenyl]-4-oxo-1H-quinoline-3-carboxamide] | < 10 µM | +++ (>100%) |
| CCOC(=O)Nc1cc(NC(=O)c2c[nH]c3ccccc3c2=O)ccc1C [Compound 141, [2-methyl-5-[(4-oxo-1H-quinolin-3-yl)carbonylamino]phenyl]aminoformic acid ethyl ester] | 10 to 25 µM | ++ (between 25% to 100%) |
| CC(C)(C)OC(=O)NC1CCCc2ccc(NC(=O)c3c[nH]c4ccccc4c3=O)cc21 (centres unmarked) [Compound 273, [7-[(4-oxo-1H-quinolin-3-yl)carbonylamino]tetralin-1-yl]aminoformic acid tert-butyl ester] | < 10 µM | +++ (>100%) |
| Cc1cccc(NC(=O)c2c[nH]c3ccccc3c2=O)n1 [Compound 173, N-(6-methyl-2-pyridyl)-4-oxo-1H-quinoline-3-carboxamide] | 25 to 60 µM | + (<25%) |
| CCC(CC)(CC)c1cc(F)c(NC(=O)c2cnc3ccccc3c2O)cc1O [Compound 34, N-[4-(1,1-diethylpropyl)-2-fluoro-5-hydroxy-phenyl]-4-hydroxy-quinoline-3-carboxamide] | < 10 µM | ++ (between 25% to 100%) |
| Cc1cccc(NC(=O)c2c[nH]c3ccccc3c2=O)c1C [Compound 61, N-(2,3-dimethylphenyl)-4-oxo-1H-quinoline-3-carboxamide] | < 10 µM | ++ (between 25% to 100%) |
| Cc1cc(C(C)(C)C)c(O)cc1NC(=O)c1c[nH]c2ccccc2c1=O [Compound 518, N-(5-hydroxy-2-methyl-4-tert-butyl-phenyl)-4-oxo-1H-quinoline-3-carboxamide] | < 10 µM | ++ (between 25% to 100%) |
| COc1ccc(Cl)cc1-c1cc2cc[nH]c2cc1NC(=O)c1c[nH]c2ccccc2c1=O [Compound 1, N-[5-(5-chloro-2-methoxy-phenyl)-1H-indol-6-yl]-4-oxo-1H-quinoline-3-carboxamide] | < 10 µM | ++ (between 25% to 100%) |
| CC1CCN(S(=O)(=O)c2ccc3[nH]cc(C(=O)Nc4cc5[nH]ccc5cc4C(C)(C)C)c(=O)c3c2)CC1 [Compound 51, 6-[(4-methyl-1-piperidyl)sulfonyl]-4-oxo-N-(5-tert-butyl-1H-indol-6-yl)-1H-quinoline-3-carboxamide] | < 10 µM | ++ (between 25% to 100%) |
| CC(=O)N1CCCC(C)(C)c2ccc(NC(=O)c3c[nH]c4ccccc4c3=O)cc21 [Compound 109, N-(1-acetyl-2,3,4,5-tetrahydro-5,5-dimethyl-1H-benzo[b]azepin-8-yl)-1,4-dihydro-4-oxoquinoline-3-carboxamide] |  | ++ (between 25% to 100%) |
| CCOc1ccc2ncc(C(=O)Nc3ccc4cc[nH]c4c3)c(O)c2c1 [Compound 112, 6-ethoxy-4-hydroxy-N-(1H-indol-6-yl)quinoline-3-carboxamide] | < 10 µM | ++ (between 25% to 100%) |
| CCc1ccc(NC(=O)OC)cc1NC(=O)c1c[nH]c2ccccc2c1=O [Compound 249, [4-ethyl-3-[(4-oxo-1H-quinolin-3-yl)carbonylamino]phenyl]aminoformic acid methyl ester] | 10 to 25 µM | ++ (between 25% to 100%) |
| O=C(Nc1ccc2cc[nH]c2c1)c1cnc2cc(C(F)(F)F)cc(C(F)(F)F)c2c1O [Compound 130, 4-hydroxy-N-(1H-indol-6-yl)-5,7-bis(trifluoromethyl)quinoline-3-carboxamide] | < 10 µM | ++ (between 25% to 100%) |
| CN(C)CCS(=O)(=O)Nc1cc(NC(=O)c2c[nH]c3ccccc3c2=O)cc(C(F)(F)F)c1 [Compound 359, N-[3-(2-dimethylaminoethylsulfonylamino)-5-(trifluoromethyl)phenyl]-4-oxo-1H-quinoline-3-carboxamide] | 10 to 25 µM | ++ (between 25% to 100%) |
| CCc1cc(C(C)(C)C)c(O)cc1NC(=O)c1c[nH]c2cccc(O)c2c1=O [Compound 507, N-(2-ethyl-5-hydroxy-4-tert-butyl-phenyl)-5-hydroxy-4-oxo-1H-quinoline-3-carboxamide] | < 10 µM | ++ (between 25% to 100%) |
| O=C(Nc1ccc2c(c1)NCCO2)c1c[nH]c2ccccc2c1=O [Compound 105, 1,4-dihydro-N-(3,4-dihydro-2H-benzo[b][1,4]oxazin-6-yl)-4-oxoquinoline-3-carboxamide] | 10 to 25 µM | ++ (between 25% to 100%) |
| N#CCc1c[nH]c2cc(NC(=O)c3c[nH]c4ccccc4c3=O)ccc12 [Compound 96, N-[3-(cyanomethyl)-1H-indol-6-yl]-4-oxo-1H-quinoline-3-carboxamide] | < 10 µM | ++ (between 25% to 100%) |
| CC1(c2cc(F)c(NC(=O)c3c[nH]c4ccccc4c3=O)cc2O)CCCCC1 [Compound 92, N-[2-fluoro-5-hydroxy-4-(1-methylcyclohexyl)-phenyl]-4-oxo-1H-quinoline-3-carboxamide] | < 10 µM | ++ (between 25% to 100%) |
| Cc1ccc(C)c(NC(=O)c2c[nH]c3ccccc3c2=O)c1 [Compound 434, N-(2,5-dimethylphenyl)-4-oxo-1H-quinoline-3-carboxamide] | < 10 µM | ++ (between 25% to 100%) |
